Entries after “also recorded” stand apart in the source; their conditions may differ. Where two headings read alike, the source gives them in different places. Non-standard residues stand in square brackets, D forms with d. Ava = NCCCCC(=O)O

The test system of one experiment is MHC Class II molecules. Particulars: cited from earlier work.
The test system of experiment [1] is tumor cells expressing CEA. As to conditions: cited from earlier work.
Experiment [2] concerns total splenic cells from DR4-IE Tg mice. Kind of experiment: IFN-γ ELISPOT recall response, total splenic cells, Ii-Key/gp100 hybrids. The class given is in vivo. Particulars: specificity control. The source says:
Immunizations. DR4-IE Tg mice were immunized subcutaneously at the base of the tail with 40 nmole or 60 nmole of Ii-Key/gp100 MHC class II hybrid or epitope-only peptides, dissolved in saline and emulsified with an equal volume of either IFA or CFA. The synthetic phosphorothioate-modified CpG ODN 1826, 5′ TCC […] CTG ACGTT 3′ (SEQ ID NO.: 906) immunostimulatory nucleotide (CpG motif underlined) was purchased from Oligos Etc. (Wilsonville, Oreg.). DR4-IE Tg mice were vaccinated s.c. with 60 nmole of designated immunogen in an emulsion with IFA and 60 μg CpG. […]
ELISPOT assays. […] Digitalized images of spots were analyzed with a Series 1 Immunospot Analyzer and Immunospot 1.7e software (Cellular Technology Limited, Cleveland, Ohio). Criteria for spot size, circularity and color density were determined by comparing control and experimental wells. […] Only areas meeting the specified criteria were counted as spots. Mean and standard deviations were calculated for all assays. […]
Structure-activity rules identified in study. The stimulation of splenic mononuclear lymphocytes from HLA-DR4-IE Tg mice immunized with, respectively, with each of the peptides of Table 1.2 with complete Freund's adjuvant (CFA), was determined in an ELISPOT assay for IFN-γ, IL-4 and IL-2. […]

The subject of experiment [3] is PGCC(95-104) epitope peptide. More on the design: species or system C3H/HeJ mice. Particulars: mouse, in vivo.
Experiment [4] has as its system splenic T cells. The class given is in vivo. Particulars: C3H/HeJ mice, spleen cells day 35 re-stimulated with HIV gp160(843-855) peptide, triplicate wells. As for the experimental part: An ELISPOT assay for IFN-γ cytokine responses was performed in order to titer more exactly splenic T lymphocyte subset responses to immunization with Ii-Key-ava-gp160(843-855) or gp160(843-855). The assay was performed as follows. A solution of the cytokine-specific capture antibody (100 μl at 6 μg/ml in phosphate-buffered saline solution, pH 7.2) was added to each well of a 96-well Immunospot plate (M200) for an overnight incubation at 4° C. After aspiration, phosphate-buffer saline solution 200 μl containing 10% fetal bovine serum and 1% penicillin-streptomycin-glutamine (mouse medium) was added to each well for 2 hr at RT. After washing four times with 1% Tween-20 in phosphate-buffered saline solution (wash buffer I), 100 μl of single cell suspensions from the spleens of immunized mice at 10^6 cells/well were re-stimulated with 100 μl of peptide-epitope at 5 μg/well in mouse medium and incubated for 20-40 hr at 37° C., 5% CO2. After washing twice with phosphate-buffered saline solution (wash buffer II) and four times with wash buffer I, 100 μl of 2 ÿg/ml biotinylated anti-mouse IFN-γ in 1× phosphate buffer saline with 10% fetal bovine serum (dilution buffer) was added to each well for 2 hr at RT. After washing five times with wash buffer I, 100 il of streptavidin-horse radish peroxidase conjugate (1:500) in dilution buffer was added to each well for 1 hr at RT. After washing four times with wash buffer I and two times with wash buffer II, 100 μl of the 3-amino-9-ethylcarbazole/H2O2 substrate (Pharmingen 551951) was added and incubated for 30-60 min in the dark at RT. The reaction was stopped by washing three times with 200 μl of deionized water. ELISPOT data analysis was performed by using the Immunospot 1.7e software ([…]). […] Additional counting parameters for spot size and circularity were applied to gate out speckles caused by non-specific antibody binding. Each spot represents a single cell secreting IFN-γ.
C3H/HeJ(H-2^k) mice were immunized with 40 nmole of peptides (50 μl) emulsified with equal volume of incomplete Freund's adjuvant (IFA), subcutaneously at the base of the tail. On day 13 the mice were boosted subcutaneously at the base of the tail with 40 nmole of peptides (50 μl) emulsified with equal amount of incomplete Freund's adjuvant (IFA). On day 31, the mice were boosted intravenously with 40 nmole peptides dissolved in 100 μl Hank's balanced salts solution (HBSS). On day 35, the mice were sacrificed and single cell suspensions from spleens were assayed for IFN-γ responses to HIV gp160(843-855) peptide.
Number is the mean number of spots (and standard deviation) in triplicate wells and Size is the mean spot size in mm^2 (and standard deviation). Ii-Key/gp160(844-855) has one ava spacer (Ii-key-ava-gp160(844-855)).

The test system of experiment [5] is splenic T cells. More on the design: species or system B10(A) 5R mice. Particulars: mouse, in vivo.
The test system of experiment [6] is HIV gp160(843-855) peptide. In kind it is in vivo. Particulars: B10.A (5R) mice, peptides in saline solution, serum day 35. As for the experimental part:
An ELISA assay for antibody responses following immunization with the experimental peptides indicated above was performed as follows. Fifty microliters (μl) of a solution of the coating peptide at 2 μg/well in 0.1 M carbonate buffer, pH 9.5 was added to each well of a 96-well Nunc-immunoplate (#442404) for an overnight incubation at 4° C. After aspiration, 250 μl of phosphate-buffer saline solution containing 3% fetal bovine serum (assay diluent) was added to each well for 2 hr at RT. After washing three times with assay diluent, 50 μl of 20-times diluted mouse serum in 1:3 serial dilution in assay diluent was added to each well for 2 hr at RT. After washing three times with assay diluent, 50 μl of 1 ÿg/ml biotinylated goat anti-mouse IgG1 or IgG2a was added to each well and incubated for 1 hr at RT. After washing three times with assay diluent, 50 μl of streptavidin-horse radish peroxidase conjugate (1:1000) was added to each well and incubated for 30 min at RT. After washing three times with assay diluent, 100 μl of tetramethylbenzidine/H2O2 solution (Pharmingen 264KK) was added to each well for 15 min in the dark at room temperature. The reaction was stopped with 100 μl 1N H2SO4 in each well and the absorbance was read immediately at 450 nm.
B10.A (5R) mice (H-2^k/b) were immunized with 20 nmole of peptides in 50 μl phosphate-buffered saline solution, intramuscularly in right and left rear legs on days 1 and 2, respectively. On day 14 the mice were boosted intramuscularly with 40 nmole of peptides in 200 μl Hank's balanced salts solution intramuscularly in a rear leg. On day 30 the mice were boosted intravenously with 40 nmole peptides dissolved in Hank's balanced salts solution (HBSS). On day 35 the mice were sacrificed and serum samples were assayed for antibody titers against the HIV gp160(843-855) peptide.

Experiment [7] concerns purified splenic CD4+ Th cells. Set-up: species or system DR4-IE Tg mice. Particulars: mouse, in vivo, sc.
In experiment [8] the test system is HLA alleles of the A2 supertype (A2.2, A2.3, A2.6 and A6802). As to conditions: cited from earlier work.

Regarding LRMKLPKPPKPVSQMR [Ii(77-92)], the “activity of Ii-Key peptides in presentation of antigenic peptides” value (from here on “activity of Ii-Key peptides”) with MHC Class II molecules is reported as “enhanced presentation of antigenic peptides”.

Consider QYSWFVNGTF [9.5.4], for which the CTL induction entry in experiment [1] was “elicited CTL lines that lysed tumor cells”.

Regarding “GVGSPYVSRLLGICL [HER-2/neu (776-790) epitope]”, the “spots on in vitro stimulation with non-specific DR4 restricted epitope” value in experiment [2] (immunization in CFA) was “Less than 10 spots/well”. In addition, in experiment [2] (b664 CFA, b669 CpG in IFA), the “spots on stimulation with non-specific HLA-DR4-restricted epitope” value was “non-significant immune response; also recorded: three to six spots”.

On to “Ac-LRMK-ava-IAYLKQATAK-NH2 (Ac-LRMK[Ava]IAYLKQATAK-NH2; SMILES CC[C@H](C)[C@H](NC(=O)CCCCNC(=O)[C@H](CCCCN)NC(=O)[C@H](CCSC)NC(=O)[C@H](CCCNC(=N)N)NC(=O)[C@H](CC(C)C)NC(C)=O)C(=O)N[C@@H](C)C(=O)N[C@@H](Cc1ccc(O)cc1)C(=O)N[C@@H](CC(C)C)C(=O)N[C@@H](CCCCN)C(=O)N[C@@H](CCC(N)=O)C(=O)N[C@@H](C)C(=O)N[C@H](C(=O)N[C@@H](C)C(=O)N[C@@H](CCCCN)C(N)=O)[C@@H](C)O) [Ii-Key/PGCC]”, for which the “antibody titers against PGCC epitope” value in experiment [3] is reported as “Significantly greater antibody titers”.

For “LRMKLPK (printed: Leu-Arg-Met-Lys-Leu-Pro-Lys)”, the “activity of Ii-Key peptides” value with MHC Class II molecules is listed as “significantly greater activity”.

As for “Ac-LRMK-ava-YRAIRHIPR-NH2 (Ac-LRMK[Ava]YRAIRHIPR-NH2; SMILES CC[C@H](C)[C@H](NC(=O)[C@H](C)NC(=O)[C@H](CCCNC(=N)N)NC(=O)[C@H](Cc1ccc(O)cc1)NC(=O)CCCCNC(=O)[C@H](CCCCN)NC(=O)[C@H](CCSC)NC(=O)[C@H](CCCNC(=N)N)NC(=O)[C@H](CC(C)C)NC(C)=O)C(=O)N[C@@H](CCCNC(=N)N)C(=O)N[C@@H](Cc1c[nH]cn1)C(=O)N[C@H](C(=O)N1CCC[C@H]1C(=O)N[C@@H](CCCNC(=N)N)C(N)=O)[C@@H](C)CC) [Ii-Key/one-ava/gp160(844-855)]”, in the experiment on splenic T cells [4], the “Number (mean number of IFN-γ ELISPOT spots and standard deviation)” value was 59 (+/−5); the “Size (mean spot size and standard deviation)” value was 0.028 (+/−0.006) mm^2.

Consider HLFYSWYK [9.5.6], for which the CTL induction entry in experiment [1] was “elicited CTL lines that lysed tumor cells”.

LRMK: the “activity of Ii-Key peptides” value with MHC Class II molecules is listed as “half-maximal activity”.

For the substance “Ac-LRMK-AYRAIRHIPR-NH2 (Ac-LRMKAYRAIRHIPR-NH2) [gp160(843-855)]”, in the experiment on splenic T cells [5], the “Percentage of cells CD3^+/IFN-γ^+” value was determined as 2.05%, the “Percentage of cells CD4^+” value worked out at 31.03% and the “Percentage of cells CD4^+/IFN-γ^+” value is on record as 0.94%. Also, the “Antibody induction, ELISA against HIV gp160(843-855) peptide” value (“Antibody induction, ELISA” below) in [6] (Dilution^−1 20) was determined as 0.052. In addition, the “Antibody induction, ELISA” value in experiment [6] (Dilution^−1 60) turned out to be 0.023. Moreover, the “Antibody induction, ELISA” value in experiment [6] (Dilution^−1 180) is 0.000. Besides, the “Antibody induction, ELISA” value in experiment [6] (Dilution^−1 540) was −0.005. Besides, in the experiment on splenic T cells [4], the “Number (mean number of IFN-γ ELISPOT spots and standard deviation)” value is given as 5 (+/−3.6); the “Size (mean spot size and standard deviation)” value is reported as 0.019 (+/−0.01) mm^2.

Regarding RQLYPEWTEAQRL [Peptide A], the IFN-γ spots in [7] stood at 491 spots.

As for LMTFWNPPV [9.5.2], the CTL induction result in experiment [1] is listed as “induced vigorous anti-tumor CTL responses”. Further, the “binding to HLA alleles of the A2 supertype” value in experiment [8] was “bound tightly”.
